The values below are quoted from earlier work in US7696365B2 (Chugai Seiyaku Kabushiki Kaisha, priority 2003, dated 2010).

The IC50 is the concentration that gives 50% inhibition.

Data set [1] relates to human breast cancer cells.
For data set [2], the system named is muscle (M) isoform of CPT-I. Conditions: read-out: IC50 of malonyl-CoA inhibition, muscle isoform.

With `CCCCCCCCCCCCCCOc1ccc(C(=O)O)o1` [TOFA, 5-(tetradecyloxy)-2-furoic acid], in data set [1] (breast carcinoma cells), the malonyl-CoA level is 60 % of the control. In addition, the antitumor activity result in data set [1] (human breast cancer cells and xenografts) is recorded as “does not show any antitumor activity”.
`CC(C)(COP(=O)(O)OP(=O)(O)OC[C@H]1O[C@@H](n2cnc3c(N)ncnc32)[C@H](O)[C@@H]1OP(=O)(O)O)[C@@H](O)C(=O)NCCC(=O)NCCSC(=O)CC(=O)O` [malonyl-CoA, Malonyl-CoA]: the IC50 in data set [2] was 30 nM.
